Test system: lipogenesis in swine adipose tissue
Assay: Inhibition of lipogenesis (lipid synthesis from glucose-U^14 C) in swine adipose tissue slices
Type: cell-based
Conditions: Sus scrofa, 100 micrograms per milliliter of incubation mixture, 37° C., 2 hours, 300 microunits of insulin, 5% DMSO, triplicate, read-out: Percent Inhibition of lipogenesis (lipid synthesis) compared to control tests
Description: The manner in which they cause this effect is not known with certainty; it is believed that they interfere with the synthesis of fatty acids in the tissues. Their effectiveness for this purpose has been ascertained by immersing samples of swine adipose tissue in a liquid medium containing radioactive glucose and the test chemical for a period of time, then isolating the lipid from the treated tissue and determining the uptake of the radioactive carbon by means of scintillation counting techniques. These tests were conducted in swine adipose tissue because in swine, the primary site of lipogenesis--i.e., fatty acid synthesis--appears to be adipose tissue.
Described in more detail, the tests were conducted according to the following general procedure:
150 milligrams of slices of swine adipose tissue were incubated at 37° C. for 2 hours with shaking in 3 milliliters of Krebs-Ringer bicarbonate solution containing one-half of the normal calcium ion concentration, 60 micromoles of glucose, 0.5 micro-Curie of glucose-U^14 C, and 300 microunits of insulin, and 5% dimethyl sulfoxide (DMSO). The test compound was added as a solution or suspension in DMSO and was present as a concentration of 100 micrograms per milliliter of incubation mixture.
The incubation was terminated by addition of 0.25 milliliter of 1 N sulfuric acid. The resulting mixture was extracted with a total of 25 milliliters of chloroform:methanol (2:1, v/v). The extracts were washed according to Folch et al. (J. Biol. Chem., 226, 497-509, (1957)), air dried, and counted in a liquid scintillation counter with 15 milliliters of counting fluid (two parts toluene containing 0.4% w/v New England Nuclear Omnifluor: 1 part Triton X-100). The tests were conducted in triplicate and were accompanied by control tests in which all ingredients,proportions and conditions were the same except that no test compound was included. From the data obtained were calculated the percent inhibition of lipid synthesis by the test compound. The data obtained are reported as the percent inhibition of lipogenesis compared to the results obtained in the control tests wherein only the test compound was omitted.

Row | Structure (SMILES) | inhibition at 100 µg/mL [%]
1 | CCOC(=O)c1cc2cc(Cc3ccccc3)ccc2o1 [Compound 1, Ethyl 5-benzylbenzofuran-2-carboxylate] | 45
2 | CCCCCCOc1ccc2oc(C(=O)OCC)cc2c1 [Compound 2] | 23
3 | CCOC(=O)c1cc2cc(C(=O)c3ccccc3)ccc2o1 [Compound 3] | 47
4 | CCOC(=O)c1cc2c(Oc3ccccc3)cccc2o1 [Compound 4, Ethyl 4-phenoxybenzofuran-2-carboxylate] | 28
5 | CCOC(=O)c1cc2cc(-c3ccc(C(C)=O)cc3)ccc2o1 [Compound 5, Ethyl 5-(4-acetylphenyl)benzofuran-2-carboxylate] | 24
6 | CCOC(=O)c1cc2cc(-c3ccc(OC(C)=O)cc3)ccc2o1 [Compound 6, Ethyl 5-(4-acetyloxyphenyl)benzofuran-2-carboxylate] | 56
7 | CCOC(=O)c1cc2cc(-c3ccc(C(C)O)cc3)ccc2o1 (stereo not drawn) [Compound 7, Ethyl 5-(4-(1-hydroxyethyl)phenyl)benzofuran-2-carboxylate] | 71
8 | CCOC(=O)c1cc2cc(-c3ccc(NC(C)=O)cc3)ccc2o1 [Compound 8] | 52
9 | CCOC(=O)c1cc2cc(-c3ccc(N)cc3)ccc2o1 [Compound 9, Ethyl 5-(4-aminophenyl)benzofuran-2-carboxylate] | 45
10 | CCOC(=O)C1Cc2cc(-c3ccccc3)ccc2O1 (stereo not drawn) [Compound 10, Ethyl 2,3-dihydro-5-phenylbenzofuran-2-carboxylate] | 21
11 | CCOC(=O)C1Cc2cc(Cc3ccccc3)ccc2O1 (stereo not drawn) [Compound 11] | 40
12 | C=CCOC(=O)C1Cc2cc(Cc3ccccc3)ccc2O1 (stereo not drawn) [Compound 12] | 36
13 | CCOC(=O)C1Cc2c(Oc3ccccc3)cccc2O1 (stereo not drawn) [Compound 13] | 20
14 | COC(=O)C1Cc2cc(-c3ccc(C(C)O)cc3)ccc2O1 (stereo not drawn) [Compound 14] | 85
15 | CCOC(=O)C1Cc2cc(-c3ccc(NC(C)=O)cc3)ccc2O1 (stereo not drawn) [Compound 15] | 88
16 | CCOC(=O)C1Cc2cc(C3CCCCC3)ccc2O1 (stereo not drawn) [Compound 16] | 21
17 | CCOC(=O)C1Cc2ccc(Oc3ccccc3)cc2O1 (stereo not drawn) [Compound 17] | 29
18 | CCOC(=O)C1Cc2cc(-c3ccc(Cl)cc3)ccc2O1 (stereo not drawn) [Compound 18, Ethyl 2,3-dihydro-5-(4-chlorophenyl)benzofuran-2-carboxylate] | 28
